According to US20220040169A1, “Methods for the Administration of Certain VMAT2 Inhibitors” (Neurocrine Biosciences, Inc., priority 2019, published 2022):

What was measured:
[1] = Solubility in water; format: physicochemical
Source text: INGREZZA contains valbenazine, present as valbenazine ditosylate salt, with the chemical name, L-Valine, (2R,3R,11bR)-1,3,4,6,7,11b-hexahydro-9,10-dimethoxy-3-(2-methylpropyl)-2H-benzo[a]quinolizin-2-yl ester, 4-methylbenzenesulfonate (1:2). […] Its molecular formula is C38H54N2O10S2, and its molecular weight is 762.97/mol (ditosylate salt) with the following structure: […]

[2] = Phase 2 and 3 controlled studies and long-term treatment in adults with tardive dyskinesia: Parkinson-like adverse events; format: in vivo, human
Source text: In the Phase 2 and 3 controlled studies in adults with tardive dyskinesia (treatment up to 6 weeks), the incidence of Parkinson-like adverse events (AEs) was 3% (vs. <1% for placebo) and 4% during long-term treatment with valbenazine (up to 48 weeks).

Row | SMILES | solubility in water [1] | serious Parkinson-like AEs ([2]; NBI clinical studies in tardive dyskinesia patients) | incidence of Parkinson-like adverse events (AEs) ([2]; Phase 2 and 3 controlled studies, adults with tardive dyskinesia, treatment up to 6 weeks, placebo <1%) | incidence of Parkinson-like adverse events (AEs) during long-term treatment ([2]; long-term treatment up to 48 weeks)
1 | COc1cc2c(cc1OC)[C@H]1C[C@@H](OC(=O)[C@@H](N)C(C)C)[C@H](CC(C)C)CN1CC2 [Valbenazine ditosylate, L-Valine, (2R,3R,11bR)-1,3,4,6,7,11b-hexahydro-9,10-dimethoxy-3-(2-methylpropyl)-2H-benzo[a]quinolizin-2-yl ester, 4-methylbenzenesulfonate (1:2)] | slightly soluble | – | – | –
2 | COc1cc2c(cc1OC)[C@H]1C[C@@H](OC(=O)[C@@H](N)C(C)C)[C@H](CC(C)C)CN1CC2 [valbenazine, (S)-2-amino-3-methyl-butyric acid (2R, 3R,11bR)-3-isobutyl-9,10-dimethoxy-1,3,4,6,7,11b-hexahydro-2H-pyrido[2,1-a]isoquinolin-2-yl ester] | – | No serious Parkinson-like AEs were reported | 3% | 4%
